Legend:
IL-4 = IL-4 mRNA expression in anti-CD3 activated splenocytes, RT-PCR; type: cell-based, mouse
Experimental: (§1) FIG. 9 represents RT-PCR results showing an inhibitory effect of hirsutanonol on Th1 and Th2 cytokine expression. Murine splenocytes were cultured on 12 well plate (RT-PCR) at a concentration of 1.5×10^4 cells per well. For T cell activation, CsA (50 nM) and hirsutanonol were added into a well added with anti-CD3 mAb and all of other wells. Cells were incubated for 24 hrs and then […] was carried out. GAPDH was served as an internal control.
(§2) The mRNA expression levels of Th1 cytokines, IL-2 and Th2 cytokines, IL-4, IL-10 and IL-13 were examined. T cells activated by anti-CD3 mAb among spleen lymphocytes were used as a target. The primer sequences used to analyze IL-2, IL-4, IL-10 and IL-13 mRNA are as follows.

CD25/CD69 = assay: T-cell early activation markers, flow cytometry; type: cell-based, mouse; settings: 100 μg/ml, splenocytes stimulated by anti-CD3 mAb, 24 hrs
Experimental: FIG. 12 is a flow cytometry result analyzing the changes of CD25/CD69 expression induced by hirsutanonol. Splenocytes were stimulated by anti-CD3 mAb in the presence or absence of hirsutanonol. Each hirsutanonol and CsA was treated at concentrations of 50 and 100 μg/ml, and 50 nM. After incubation for 24 hrs, the percentage of cells expressing CD25 and CD69 were measured using flow cytometry.
CD25 and CD69 expression levels were comparatively measured in the group of basal, CsA and hirsutanonol (50, 100 μg/ml) respectively. CsA was used as a control group due to its strong inhibitory activity on CD25 and CD69 expression. The results were represented in FIG. 12.

IL-13 = IL-13 mRNA expression in anti-CD3 activated splenocytes, RT-PCR; type: cell-based, mouse
Experimental: as §1, §2

rat mast cell (RBL-2H3) = assay: β-hexosaminidase assay (mast cell degranulation); type: cell-based
Experimental: FIG. 10 represents experimental results of β-hexosaminidase assay for hirsutanonol. The β-hexosaminidase (beta-hex) assay was performed according to the standard protocol of RBL-2H3 cell line. Suitable supernatant was collected and beta-hex activity was measured by incubating with a beta-hex substrate (p-nitrophenyl N-acetyl-beta-D-glucosaminide; Sigma) colored at 405 nm by cutting.
For testing the degranulation in rat mast cell (RBL-2H3) by hirsutanonol, β-hexosaminidase assay was carried out. β-hexosaminidase assay allows us to measure the activity and degranulation of mast cells.

IL-2 [1] = assay: IL-2 expression in anti-CD3 activated murine splenocytes, ELISA; type: cell-based, mouse
Experimental: FIG. 8 is the experimental results showing the inhibitory effect of hirsutanonol on IL-2 expression. Murine splenocytes were grown on 96 well plate at a concentration of 1.5×10^4 cells per well. For T cell activation, CsA (50 nM) and hirsutanonol were added into a well added with anti-CD3 mAb and into all of other wells. Cells were incubated for 72 hrs and then ELISA was carried out using the supernatants collected from each well.
IL-2 is a cytokine expressed in Th1 cells and plays a crucial role in the proliferation of T cells. Hirsutanonol was added to splenic T cells which have been primarily cultured from murine splenocytes and pre-activated by anti-CD3 mAb. Inhibitory activity of hirsutanonol on IL-2 expression was measured using ELISA. Cyclosporine A (CsA) with strong inhibitory activity against IL-2 secretion was served as a positive control.

IL-2 [2] = assay: IL-2 mRNA expression in anti-CD3 activated splenocytes, RT-PCR; type: cell-based, mouse
Experimental: as §1, §2

IL-10 = IL-10 mRNA expression in anti-CD3 activated splenocytes, RT-PCR; type: cell-based, mouse
Experimental: as §1, §2

Jurkat cells = assay: Inhibition of cell proliferation, CCK assay (WST-8); type: cell-based, human
Experimental: FIG. 7 is a graph measuring the inhibitory effect of hirsutanonol on cell proliferation. Jurat cells were seeded into a 96 well plate at a concentration of 1×10^4 cells per well, and cultured in 2% FBS DMEM with or without hirsutanonol. Cell numbers were counted in triplicate wells by measuring the absorbance of reduced WST-8 (Dojindo, Japan) at 450 nm.
Hirsutanonol activity to inhibit cell proliferation of Jurkat cells was tested using CCK assay. […] Therefore, about 50 μg/ml of hirsutanonol was used in experiments to assess in vitro activity of hirsutanonol.

[3] = system: BSA (bovine serum albumin); assay: BSA degradation test (anti-oxidative activity, Cu2+/H2O2); type: biochemical
Experimental: The hydroxyl radical-mediated oxidation experiments were carried out by metal-catalyzed reactions. BSA (bovine serum albumin) was dissolved in 150 mM phosphate buffer (pH 7.3) to a final concentration of 0.5 mg/ml. […] 50 μg/ml of ascorbic acid was directly dissolved in 1×PBS and served as a control (an anti-oxidant). After incubation in an open tube, the reaction was kept to stand in a 37° C. shaking water bath. Each experimental group was loaded on 10% SDS-PAGE and stained with 0.01% Coomassie blue.
50 μg of BSA (Sigma) was added to 37.5 mM phosphate buffers (pH 7.3) containing 100 μM Cu^2+, 2.5 mM H2O2 and various amounts of hirsutanonol (1, 50, 100/200 μg/ml), and incubated at 37° C. for 2 hrs. Vitamin C (50 μg/ml) was served as a positive control. The reaction mixture was separated on 10% SDS gel and the protein bands were stained with 0.01% Coomassie blue.
Evaluation of anti-oxidative activity was preformed according to a BSA (bovine serum albumin) degradation test. BSA degradation test is a method to verify a capacity of an anti-oxidative compound which protects proteins or enzymes from damage by reactive oxygen species (ROS) using a metal ion-catalyzed reaction. […] The reaction mixture was electrophoresized on 10% SDS-PAGE (SDS-polyacrylamide gel).
To examine anti-oxidative activity of hirsutanonol, the removal of radical produced from H2O2/Cu^2+ was measured.

[4] = Solubility in water on preparing the stock solution; settings: stock solution preparation
From the text: The final concentration of DMSO was adjusted to not more than 0.1% so as to maximally exclude the interference of the solvent. […] The prepared stock solutions were stored and then used after dilution to the suitable concentration.

Row | solubility in water [4] | SMILES | inhibitory activity on IL-4 mRNA expression (IL-4; 50 μg/ml or 100 μg/ml) | inhibitory effect on IL-4 mRNA expression compared to CsA (IL-4; 100 μg/ml, CsA 50 nM) | inhibitory activity on CD25/CD69 expression compared to basal and CsA (CD25/CD69) | inhibitory activity on IL-13 mRNA expression (IL-13; 50 μg/ml or 100 μg/ml) | inhibitory effect on IL-13 mRNA expression compared to CsA (IL-13; 100 μg/ml, CsA 50 nM) | activity level of β-hexosaminidase (rat mast cell (RBL-2H3); 100 μg/ml) | inhibitory capability compared to CsA (rat mast cell (RBL-2H3); β-hexosaminidase) [fold] | inhibitory effect on IL-2 expression compared to CsA (IL-2 [1]; 50 μg/ml or 100 μg/ml, CsA 50 nM, 72 hrs) | inhibition effect on IL-2 secretion (IL-2 [1]; 50 μg/ml, without cytotoxicity) | inhibitory activity on IL-2 mRNA expression (IL-2 [2]; 50 μg/ml or 100 μg/ml) | inhibitory effect on IL-2 mRNA expression compared to CsA (IL-2 [2]; 100 μg/ml, CsA 50 nM) | inhibitory activity on IL-10 mRNA expression (IL-10; 50 μg/ml or 100 μg/ml) | inhibitory effect on IL-10 mRNA expression compared to CsA (IL-10; 100 μg/ml, CsA 50 nM) | concentration exhibiting inhibitory effects on cell proliferation (Jurkat cells) | BSA protection effect ([3]; hirsutanonol 100 μg/ml) | activity to protect BSA ([3]; hirsutanonol 1, 50, 100/200 μg/ml, Cu2+ 100 μM, H2O2 2.5 mM) | BSA protection effect compared to Vitamin C ([3]; hirsutanonol, Vitamin C 50 μg/ml positive control)
1 | – | O=C(CCc1ccc(O)c(O)c1)CC(O)CCc1ccc(O)c(O)c1 (stereo not drawn) [hirsutanonol] | significant inhibitory activity | inhibitory effect equal to CsA | excellent inhibitory activity | significant inhibitory activity | inhibitory effect equal to CsA | maximally inhibited | 20 | much higher than that of CsA | remarkably exhibited | significant inhibitory activity | inhibitory effect equal to CsA | significant inhibitory activity | inhibitory effect equal to CsA | over 50 μg/ml | significantly exhibited BSA protection effect | increased in a concentration-dependent manner | lower than that of Vitamin C
2 | feasibly dissolved in water | O=C(CCc1ccc(O)c(O)c1)C[C@H](CCc1ccc(O)c(O)c1)O[C@@H]1OC[C@@H](O)[C@H](O)[C@H]1O [oregonin] | – | – | – | – | – | – | – | – | – | – | – | – | – | – | – | – | –

Reference: patent US20100190729A1 (CHUNG-ANG University Industry Academic Cooperation …, priority 2009, published 2010)
